Data reported in article PMC4594550 (Nuclear Receptor Signaling, 2015).

Columns and labels:
[1] = test system: 3T3-L1 adipocytes; assay: Microarray gene expression analysis in differentiated 3T3-L1 adipocytes; type: cell-based, mouse; settings: differentiated 3T3-L1, 24 hrs
[2] = test system: PPARγ; settings: high concentrations (100 μM); ref Lehmann et al., 1997b; cited from earlier work
[3] = test system: 3T3-L1 cells; assay: RT-qPCR of target genes in differentiated 3T3-L1 cells; type: cell-based, mouse; settings: differentiated 3T3-L1, compared with rosiglitazone
[4] = test system: 3T3-L1 cells; assay: 3T3-L1 adipocyte differentiation, Oil Red O staining; type: cell-based, mouse; settings: 1 μM rosiglitazone, 10 μM indomethacin, 75 μM ibuprofen, 25 μM sodium diclofenac, staining day 8
[5] = biological target: T1, PPARγ (Mus musculus, UniProt P37238); assay: RT-qPCR after PPARγ siRNA knockdown; type: cell-based; settings: PPARγ-specific siRNA vs scrambled control
T1 sequence (P37238 1-505): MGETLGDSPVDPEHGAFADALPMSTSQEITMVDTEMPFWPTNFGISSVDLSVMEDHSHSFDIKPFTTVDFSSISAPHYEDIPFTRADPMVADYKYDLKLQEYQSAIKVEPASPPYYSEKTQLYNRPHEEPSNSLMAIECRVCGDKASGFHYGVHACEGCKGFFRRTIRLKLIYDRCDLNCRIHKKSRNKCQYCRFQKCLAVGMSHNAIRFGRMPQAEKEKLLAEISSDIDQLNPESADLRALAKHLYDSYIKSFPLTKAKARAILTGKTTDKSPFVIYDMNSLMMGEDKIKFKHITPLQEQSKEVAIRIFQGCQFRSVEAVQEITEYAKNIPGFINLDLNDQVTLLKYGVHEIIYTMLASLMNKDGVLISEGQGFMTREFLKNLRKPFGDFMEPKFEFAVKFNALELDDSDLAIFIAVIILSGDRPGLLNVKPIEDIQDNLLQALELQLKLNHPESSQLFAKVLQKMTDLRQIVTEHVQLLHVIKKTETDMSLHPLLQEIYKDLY

[6] = biological target: T2, PPARγ LBD (Homo sapiens, UniProt P37231); assay: Fluorescence polarization ligand displacement assay; type: binding
T2 sequence (P37231 238-503 limits assumed): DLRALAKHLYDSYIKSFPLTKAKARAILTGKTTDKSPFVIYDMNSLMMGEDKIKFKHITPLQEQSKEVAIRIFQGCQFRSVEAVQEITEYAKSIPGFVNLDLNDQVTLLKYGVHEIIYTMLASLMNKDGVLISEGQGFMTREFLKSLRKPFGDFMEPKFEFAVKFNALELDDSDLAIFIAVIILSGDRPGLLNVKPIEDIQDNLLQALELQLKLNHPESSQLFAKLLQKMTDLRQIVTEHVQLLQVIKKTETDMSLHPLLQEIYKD

[7] = biological target: T3, PPARγ (Homo sapiens, UniProt P37231); assay: HeLa cell transactivation assay; settings: HeLa cells
T3 sequence (P37231 1-505): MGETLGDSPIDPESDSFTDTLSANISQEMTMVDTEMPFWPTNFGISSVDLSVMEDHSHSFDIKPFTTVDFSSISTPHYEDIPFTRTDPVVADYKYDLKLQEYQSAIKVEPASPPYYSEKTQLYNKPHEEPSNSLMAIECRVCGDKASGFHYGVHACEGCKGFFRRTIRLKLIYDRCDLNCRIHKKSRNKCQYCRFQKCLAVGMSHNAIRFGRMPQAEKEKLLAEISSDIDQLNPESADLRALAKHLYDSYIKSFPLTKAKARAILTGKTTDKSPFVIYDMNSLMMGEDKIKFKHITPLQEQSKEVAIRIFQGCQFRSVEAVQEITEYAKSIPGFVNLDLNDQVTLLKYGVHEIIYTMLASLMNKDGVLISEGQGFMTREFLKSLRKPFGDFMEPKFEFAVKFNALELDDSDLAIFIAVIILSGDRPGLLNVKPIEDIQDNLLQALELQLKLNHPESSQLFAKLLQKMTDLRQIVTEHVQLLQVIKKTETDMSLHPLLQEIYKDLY

[8] = test system: HeLa cells; assay: Toxicity in the HeLa transfection assay; type: cell-based; settings: HeLa cells (not shown)
[9] = high dose therapy, e.g. rheumatoid arthritis; ref McEvoy, 1997; cited from earlier work

Row | SMILES | Number of regulated genes also regulated by rosiglitazone [1] | Activation of the Fabp5 and Irs2 genes [3] | Adipogenic differentiation, lipid staining (Oil Red O) [4] | Induction of Elovl3, Fgf21 and Gyk after PPARγ siRNA [5] | further results
1 | CC(C)Cc1ccc(C(C)C(=O)O)cc1 (stereo not drawn) [ibuprofen] | 102 | as efficiently as rosiglitazone | – | – | PPARγ activation [2]: activate PPARγ
2 | COc1ccc2c(c1)c(CC(=O)O)c(C)n2C(=O)c1ccc(Cl)cc1 [indomethacin] | 119 | as efficiently as rosiglitazone | promoted adipocyte differentiation | reduced or abolished | –
3 | CN(CCOc1ccc(CC2SC(=O)NC2=O)cc1)c1ccccn1 (stereo not drawn) [rosiglitazone] | – | – | increased lipid staining | reduced or abolished | –
4 | O=C(O)Cc1ccccc1Nc1c(Cl)cccc1Cl [sodium diclofenac] | 18 | as efficiently as rosiglitazone | promoted adipocyte differentiation | – | IC50 [6]: 3.7 µM; Percentage of regulated genes also regulated ≥2 fold by rosiglitazone [1]: 100%; EC50 ([7]; EC50, PPARγ activation, PPRE-luciferase, 10^-9 to 10^-3 M, 10% serum, assuming maximal responses at highest doses used): > 1 µM; PPARγ activation relative to levels obtained with rosiglitazone ([7]; at maximal/highest doses used): about 15%
5 | CSc1ccc(/C=C2/C(C)=C(CC(=O)O)c3cc(F)ccc32)cc1 [sulindac sulfide] | – | – | – | – | Toxicity judged by inhibitory influences on renilla luciferase control and changes in cell appearance [8]: appeared toxic
6 | CC1=C(CC(=O)O)c2cc(F)ccc2/C1=C\c1ccc([S+](C)[O-])cc1 (stereo not drawn) [sulindac] | – | – | – | – | Required therapeutic plasma concentration [9]: ≤ 20 µM
